Legend:
H146 = assay: In vitro cytotoxicity assay, cisplatin sensitivity, H146; assay type: cell-based; conditions: H146 cell line; read-out: IC50 concentration
H128 = assay: In vitro cytotoxicity assay, cisplatin sensitivity, H128; assay type: cell-based; conditions: H128 cell line; read-out: IC50 concentration
H146 xenografts = assay type: in vivo
SCLC cell lines [1] = assay: Short-term MTS cytotoxicity assay in a panel of 9 SCLC cell lines; conditions: for single-agent growth inhibition: veliparib 0-128 μmol/L, panel of 9 SCLC cell lines
[2] = Veliparib pharmacokinetic and platinum adducts in tumor-bearing animals; assay type: in vivo
Method: Treated animals were sacrificed either at 1 or 24 h posttreatment by cervical dislocation. Plasma and tumor samples were collected and immediately stored in liquid phase nitrogen or at −70° C. until ready for analysis. Tissues were homogenized in approximately 1 mL of PBS. Veliparib concentrations in plasma and tissue homogenates were quantitated by LC-MS. Concentrations of total platinum in plasma and tissue homogenate were quantitated by atomic absorption spectrophotometry (AAS).

PARylated proteins = assay: Level of PARylated proteins in treated cells; assay type: cell-based; conditions: veliparib 5 μmol/L
SCLC cell lines [3] = system: SCLC cell lines

Compound: N.N.[Cl][Pt][Cl] [cisplatin]
- IC50 (H146): 5.2 µM
- IC50 (H128): 14.5 µM

Compound: C[C@]1(c2nc3c(C(N)=O)cccc3[nH]2)CCCN1 [veliparib]
- dose dependence of the potentiating effect of veliparib when combined with cisplatin (H146 xenografts; FIG. 2B): appeared dose dependent
- toxicity as indicated by the measured weight of the animals (H146 xenografts; veliparib combined with cisplatin): without additive toxicity
- single-agent growth inhibition (SCLC cell lines [1]): limited single-agent activity
- single-agent growth inhibition (SCLC cell lines [1]; listed as Veliparib): limited growth inhibition
- potentiated the activity of cisplatin, carboplatin, and etoposide (SCLC cell lines [1]; veliparib 5 μmol/L): not
- intratumoral platinum concentration ([2]; in the presence of veliparib): Increased intratumoral platinum concentration
- intratumoral veliparib concentration sufficient for in vivo potentiation of the antitumor effect of cisplatin ([2]; tumor): 2 µmol/L
- level of PARylated proteins in cells (PARylated proteins): significant reduction

Compound: COc1cc([C@@H]2c3cc4c(cc3[C@@H](O[C@@H]3O[C@@H]5CO[C@@H](C)O[C@H]5[C@H](O)[C@H]3O)[C@H]3COC(=O)[C@H]23)OCO4)cc(OC)c1O [etoposide]
- correlation (CC) of the magnitude of potentiation by veliparib and the sensitivity of the cell line to the cytotoxic agent (single agent IC50) (SCLC cell lines [3]): 0.24

From patent publication US20190091259A1, “Selective Chemotherapy Treatments and Diagnostic Methods Related Thereto” (Emory University, priority 2014, published 2019)
